In PubChem BioAssay (NCI):
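Following 48 hours of exposure in 96-well plates, responses at five concentrations were used to interpolate endpoints linearly. TGI marks complete inhibition of growth.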

Key:
Assay in all cases: NCI tumour cell line growth inhibition, 48 h
786-0 renal = test system: 786-0 renal
A498 renal = test system: A498 renal
A549 NSCLC = test system: A549 NSCLC
ACHN renal = test system: ACHN renal
CAKI-1 renal = test system: CAKI-1 renal
CCRF-CEM leukemia = test system: CCRF-CEM leukemia
COLO 205 colon = test system: COLO 205 colon
DLD-1 colon = test system: DLD-1 colon
DMS 114 small cell lung = test system: DMS 114 small cell lung
DMS 273 small cell lung = test system: DMS 273 small cell lung
EKVX NSCLC = test system: EKVX NSCLC
HCC-2998 colon = test system: HCC-2998 colon
HCT-116 colon = test system: HCT-116 colon
HCT-15 colon = test system: HCT-15 colon
HOP-18 NSCLC = test system: HOP-18 NSCLC
HOP-92 NSCLC = test system: HOP-92 NSCLC
HT29 colon = test system: HT29 colon
IGROV1 ovarian = test system: IGROV1 ovarian
K-562 leukemia = test system: K-562 leukemia
KM12 colon = test system: KM12 colon
LOX IMVI melanoma = test system: LOX IMVI melanoma
LXFL 529 NSCLC = test system: LXFL 529 NSCLC
M14 melanoma = test system: M14 melanoma
M19-MEL melanoma = test system: M19-MEL melanoma
MALME-3M melanoma = test system: MALME-3M melanoma
MOLT-4 leukemia = test system: MOLT-4 leukemia
NCI-H226 lung = test system: NCI-H226 lung
NCI-H23 lung = test system: NCI-H23 lung
NCI-H460 lung = test system: NCI-H460 lung
NCI-H522 lung = test system: NCI-H522 lung
OVCAR-3 ovarian = test system: OVCAR-3 ovarian
OVCAR-8 ovarian = test system: OVCAR-8 ovarian
RPMI-8226 leukemia = test system: RPMI-8226 leukemia
RXF 393 renal = test system: RXF 393 renal
RXF-631 renal = test system: RXF-631 renal
SF-295 CNS = test system: SF-295 CNS
SF-539 CNS = test system: SF-539 CNS
SK-MEL-28 melanoma = test system: SK-MEL-28 melanoma
SK-MEL-5 melanoma = test system: SK-MEL-5 melanoma
SK-OV-3 ovarian = test system: SK-OV-3 ovarian
SN12C renal = test system: SN12C renal
SNB-75 CNS = test system: SNB-75 CNS
SNB-78 CNS = test system: SNB-78 CNS
SW-620 colon = test system: SW-620 colon
TK-10 renal = test system: TK-10 renal
U251 CNS = test system: U251 CNS
UACC-257 melanoma = test system: UACC-257 melanoma
UACC-62 melanoma = test system: UACC-62 melanoma
UO-31 renal = test system: UO-31 renal
HL-60(TB) leukemia = test system: HL-60(TB) leukemia
HOP-62 NSCLC = test system: HOP-62 NSCLC
KM20L2 colon = test system: KM20L2 colon
OVCAR-4 ovarian = test system: OVCAR-4 ovarian
OVCAR-5 ovarian = test system: OVCAR-5 ovarian
SF-268 CNS = test system: SF-268 CNS
SK-MEL-2 melanoma = test system: SK-MEL-2 melanoma
SNB-19 CNS = test system: SNB-19 CNS

With `COC12OCCN(CCO)C1=CC(=O)C1(C)N=NC(C)C12` (configuration not stated) the TGI (786-0 renal) was > 100 µM, the TGI (A498 renal) was > 100 µM and the TGI (A549 NSCLC) was > 100 µM. For the same compound, the TGI (ACHN renal) was > 100 µM, the TGI (CAKI-1 renal) was > 100 µM and the TGI (CCRF-CEM leukemia) was > 100 µM. The TGI (COLO 205 colon) was > 100 µM, the TGI (DLD-1 colon) was > 100 µM and the TGI (DMS 114 small cell lung) was > 100 µM. For the same compound, the TGI (DMS 273 small cell lung) was > 100 µM, the TGI (EKVX NSCLC) was > 100 µM and the TGI (HCC-2998 colon) was > 100 µM. For the same compound, the TGI (HCT-116 colon) was > 100 µM, the TGI (HCT-15 colon) was > 100 µM and the TGI (HOP-18 NSCLC) was > 100 µM. The TGI (HOP-92 NSCLC) was > 100 µM, the TGI (HT29 colon) was > 100 µM and the TGI (IGROV1 ovarian) was > 100 µM. For the same compound, the TGI (K-562 leukemia) was > 100 µM, the TGI (KM12 colon) was > 100 µM and the TGI (LOX IMVI melanoma) was > 100 µM. The TGI (LXFL 529 NSCLC) was > 100 µM, the TGI (M14 melanoma) was > 100 µM and the TGI (M19-MEL melanoma) was > 100 µM. For the same compound, the TGI (MALME-3M melanoma) was > 100 µM, the TGI (MOLT-4 leukemia) was > 100 µM and the TGI (NCI-H226 lung) was > 100 µM. For the same compound, the TGI (NCI-H23 lung) was > 100 µM, the TGI (NCI-H460 lung) was > 100 µM and the TGI (NCI-H522 lung) was > 100 µM. The TGI (OVCAR-3 ovarian) was > 100 µM, the TGI (OVCAR-8 ovarian) was > 100 µM and the TGI (RPMI-8226 leukemia) was > 100 µM. For the same compound, the TGI (RXF 393 renal) was > 100 µM, the TGI (RXF-631 renal) was > 100 µM and the TGI (SF-295 CNS) was > 100 µM. For the same compound, the TGI (SF-539 CNS) was > 100 µM, the TGI (SK-MEL-28 melanoma) was > 100 µM and the TGI (SK-MEL-5 melanoma) was > 100 µM. The TGI (SK-OV-3 ovarian) was > 100 µM, the TGI (SN12C renal) was > 100 µM and the TGI (SNB-75 CNS) was > 100 µM. For the same compound, the TGI (SNB-78 CNS) was > 100 µM, the TGI (SW-620 colon) was > 100 µM and the TGI (TK-10 renal) was > 100 µM. The TGI (U251 CNS) was > 100 µM, the TGI (UACC-257 melanoma) was > 100 µM and the TGI (UACC-62 melanoma) was > 100 µM. For the same compound, the TGI (UO-31 renal) was > 100 µM.
`CC(C)C(N=c1c2ccccc2n(O)c2ccccc12)C(=O)O` (configuration not stated) was tested, and the TGI (786-0 renal) was > 100 µM, the TGI (A498 renal) was > 100 µM and the TGI (A549 NSCLC) was > 100 µM. The TGI (ACHN renal) was > 100 µM, the TGI (CAKI-1 renal) was > 100 µM and the TGI (CCRF-CEM leukemia) was > 100 µM. The TGI (COLO 205 colon) was > 100 µM, the TGI (DLD-1 colon) was > 100 µM and the TGI (DMS 114 small cell lung) was > 100 µM. The TGI (DMS 273 small cell lung) was > 100 µM, the TGI (EKVX NSCLC) was > 100 µM and the TGI (HCC-2998 colon) was > 100 µM. The TGI (HCT-116 colon) was > 100 µM, the TGI (HCT-15 colon) was > 100 µM and the TGI (HL-60(TB) leukemia) was > 100 µM. The TGI (HOP-18 NSCLC) was > 100 µM, the TGI (HOP-62 NSCLC) was > 100 µM and the TGI (HT29 colon) was > 100 µM. The TGI (IGROV1 ovarian) was > 100 µM, the TGI (K-562 leukemia) was > 100 µM and the TGI (KM12 colon) was > 100 µM. For the same compound, the TGI (KM20L2 colon) was > 100 µM, the TGI (LOX IMVI melanoma) was > 100 µM and the TGI (LXFL 529 NSCLC) was > 100 µM. The TGI (M14 melanoma) was > 100 µM, the TGI (M19-MEL melanoma) was > 100 µM and the TGI (MALME-3M melanoma) was > 100 µM. The TGI (NCI-H226 lung) was > 100 µM, the TGI (NCI-H23 lung) was > 100 µM and the TGI (NCI-H460 lung) was > 100 µM. For the same compound, the TGI (NCI-H522 lung) was > 100 µM, the TGI (OVCAR-3 ovarian) was > 100 µM and the TGI (OVCAR-4 ovarian) was > 100 µM. For the same compound, the TGI (OVCAR-5 ovarian) was > 100 µM, the TGI (OVCAR-8 ovarian) was > 100 µM and the TGI (RPMI-8226 leukemia) was > 100 µM. The TGI (RXF-631 renal) was > 100 µM, the TGI (SF-268 CNS) was > 100 µM and the TGI (SF-295 CNS) was > 100 µM. The TGI (SK-MEL-2 melanoma) was > 100 µM, the TGI (SK-MEL-28 melanoma) was > 100 µM and the TGI (SK-MEL-5 melanoma) was > 100 µM. For the same compound, the TGI (SK-OV-3 ovarian) was > 100 µM, the TGI (SN12C renal) was > 100 µM and the TGI (SNB-19 CNS) was > 100 µM. The TGI (SNB-75 CNS) was > 100 µM, the TGI (SNB-78 CNS) was > 100 µM and the TGI (SW-620 colon) was > 100 µM. The TGI (TK-10 renal) was > 100 µM, the TGI (U251 CNS) was > 100 µM and the TGI (UACC-257 melanoma) was > 100 µM. The TGI (UACC-62 melanoma) was > 100 µM and the TGI (UO-31 renal) was > 100 µM.
`O=C(Cc1nc(-c2ccccc2)cc(=O)n1-c1ccccc1Cl)c1ccncc1` was tested, and the TGI (786-0 renal) was > 100 µM, the TGI (A498 renal) was > 100 µM and the TGI (A549 NSCLC) was > 100 µM. The TGI (ACHN renal) was > 100 µM, the TGI (CAKI-1 renal) was > 100 µM and the TGI (CCRF-CEM leukemia) was > 100 µM. The TGI (COLO 205 colon) was > 100 µM, the TGI (DLD-1 colon) was > 100 µM and the TGI (DMS 114 small cell lung) was > 100 µM. The TGI (DMS 273 small cell lung) was > 100 µM, the TGI (EKVX NSCLC) was > 100 µM and the TGI (HCC-2998 colon) was > 100 µM. The TGI (HCT-116 colon) was > 100 µM, the TGI (HCT-15 colon) was > 100 µM and the TGI (HL-60(TB) leukemia) was > 100 µM. For the same compound, the TGI (HOP-18 NSCLC) was > 100 µM, the TGI (HOP-62 NSCLC) was > 100 µM and the TGI (HOP-92 NSCLC) was > 100 µM. The TGI (HT29 colon) was > 100 µM, the TGI (IGROV1 ovarian) was > 100 µM and the TGI (K-562 leukemia) was > 100 µM. The TGI (KM12 colon) was > 100 µM, the TGI (KM20L2 colon) was > 100 µM and the TGI (LOX IMVI melanoma) was > 100 µM. For the same compound, the TGI (LXFL 529 NSCLC) was > 100 µM, the TGI (M14 melanoma) was > 100 µM and the TGI (M19-MEL melanoma) was > 100 µM. For the same compound, the TGI (MALME-3M melanoma) was > 100 µM, the TGI (NCI-H226 lung) was > 100 µM and the TGI (NCI-H23 lung) was > 100 µM. For the same compound, the TGI (NCI-H460 lung) was > 100 µM, the TGI (NCI-H522 lung) was > 100 µM and the TGI (OVCAR-3 ovarian) was > 100 µM. For the same compound, the TGI (OVCAR-4 ovarian) was > 100 µM, the TGI (OVCAR-5 ovarian) was > 100 µM and the TGI (OVCAR-8 ovarian) was > 100 µM. The TGI (RXF 393 renal) was > 100 µM, the TGI (RXF-631 renal) was > 100 µM and the TGI (SF-268 CNS) was > 100 µM. The TGI (SF-295 CNS) was > 100 µM, the TGI (SF-539 CNS) was > 100 µM and the TGI (SK-MEL-2 melanoma) was > 100 µM. For the same compound, the TGI (SK-MEL-28 melanoma) was > 100 µM, the TGI (SK-MEL-5 melanoma) was > 100 µM and the TGI (SK-OV-3 ovarian) was > 100 µM. For the same compound, the TGI (SN12C renal) was > 100 µM, the TGI (SNB-19 CNS) was > 100 µM and the TGI (SNB-75 CNS) was 82.6 µM. For the same compound, the TGI (SNB-78 CNS) was > 100 µM, the TGI (SW-620 colon) was > 100 µM and the TGI (TK-10 renal) was > 100 µM. For the same compound, the TGI (U251 CNS) was > 100 µM, the TGI (UACC-257 melanoma) was > 100 µM and the TGI (UACC-62 melanoma) was > 100 µM. The TGI (UO-31 renal) was > 100 µM.
